Holding throughout (type): toxicity, cell-based
One data set concerns Fibroblast. Briefly: Incucyte cell viability with human fibroblast. Particulars: 10 µM, compound concentration 10 uM.
The subject of the next data set is HEK-293T. Briefly: Incucyte cell viability with HEK293T. Particulars: human, 10 µM, compound concentration 10 uM.
The next data set concerns U2OS. Kind of data set: Incucyte cell viability with U2OS. Particulars: human, 10 µM, compound concentration 10 uM.
Where [1] appears, read: 0 h, replicate number 2, timepoint 0 hours.
Where [2] appears, read: 6 h, replicate number 1, timepoint 6 hours.
Setting [3] is: 6 h, replicate number 2, timepoint 6 hours.
Where [4] appears, read: 12 h, replicate number 1, timepoint 12 hours.
Setting [5] is: 18 h, replicate number 1, timepoint 18 hours.
Setting [6] is: 18 h, replicate number 2, timepoint 18 hours.
Where [7] appears, read: 24 h, replicate number 1, timepoint 24 hours.
The mark [8] stands for this setting: 12 h, replicate number 2, timepoint 12 hours.
[9] abbreviates: 24 h, replicate number 2, timepoint 24 hours.
Setting [10] is: 0 h, replicate number 1, timepoint 0 hours.

We go through 9 compounds from ChEMBL document CHEMBL4689842, “EUbOPEN Chemogenomics Library wave 1” (2021).
Also: filed as whole numbers so only -1 and 0 and 1 occur.

Take `CCOC(=O)CCNc1cc(N2CCc3ccccc3CC2)nc(-c2cccnc2)n1`: the “Growth Rate” value with Fibroblast (setting [1]) amounted to 1; in the data set on Fibroblast (setting [2]), 1; in the data set on Fibroblast (setting [3]), 0; in the data set on Fibroblast (setting [4]), 1; in the data set on Fibroblast (setting [5]) it was 1; with Fibroblast (setting [6]) it was 0. Also, the “Growth Rate” value with Fibroblast (setting [7]) is given as 1; with HEK-293T (setting [1]) it was 1; with HEK-293T (setting [2]), 0; in the data set with HEK-293T (setting [4]) it was 0; in the data set with HEK-293T (setting [5]) it was 0; in the data set with HEK-293T (setting [7]), 0. Moreover, the “Growth Rate” value was determined as 0 with U2OS (setting [1]); 1 with U2OS (setting [2]); 1 in the data set with U2OS (setting [4]); 0 in the data set with U2OS (setting [8]); 1 in the data set with U2OS (setting [5]); 0 in the data set with U2OS (setting [6]). Further, the “Growth Rate” value was 1 in the data set on U2OS (setting [7]) and 0 in the data set with U2OS (setting [9]).
On to `CCNC(=O)c1cc2c(N3CCOC[C@@H]3C)ccnc2n1C`, for which the “Growth Rate” value turned out to be 0 in the data set with Fibroblast (setting [10]); 1 in the data set with Fibroblast (setting [2]); 0 in the data set with Fibroblast (setting [3]); 1 with Fibroblast (setting [4]); 0 in the data set with Fibroblast (setting [8]); 1 in the data set with Fibroblast (setting [5]). Also, the “Growth Rate” value amounted to 0 in the data set with Fibroblast (setting [6]); 1 in the data set with Fibroblast (setting [7]); 1 in the data set with HEK-293T (setting [10]); 0 in the data set with HEK-293T (setting [1]); 0 in the data set on HEK-293T (setting [2]); 0 in the data set on HEK-293T (setting [4]). The “Growth Rate” value in the data set with HEK-293T (setting [5]) worked out at 1; in the data set with HEK-293T (setting [7]), 0; in the data set on HEK-293T (setting [9]), 1; with U2OS (setting [10]) it was 0; in the data set with U2OS (setting [1]), 1; in the data set with U2OS (setting [3]) it was 0. Moreover, the “Growth Rate” value in the data set on U2OS (setting [4]) is listed as 0; in the data set with U2OS (setting [8]), 1; in the data set with U2OS (setting [5]), 0; with U2OS (setting [6]), 1; in the data set with U2OS (setting [7]) it was 0; in the data set on U2OS (setting [9]), 1.
As to `Cc1cc([C@@H](C)Nc2ccccc2C(=O)O)c2nc(N3CCOCC3)cc(=O)n2c1` [AZD-6482], the “Growth Rate” value was found to be 0 in the data set on Fibroblast (setting [1]); 0 in the data set on Fibroblast (setting [2]); 0 with Fibroblast (setting [4]); 0 in the data set with Fibroblast (setting [5]); 1 in the data set on Fibroblast (setting [6]); 1 with Fibroblast (setting [7]). Besides, the “Growth Rate” value in the data set on HEK-293T (setting [2]) is on record as 0; in the data set with HEK-293T (setting [4]) it was 0; in the data set on HEK-293T (setting [8]) it was 1; in the data set on HEK-293T (setting [5]), 0; with HEK-293T (setting [7]), 0; with HEK-293T (setting [9]), 1. Also, the “Growth Rate” value is 0 in the data set with U2OS (setting [10]); 0 in the data set on U2OS (setting [2]); 1 with U2OS (setting [3]); 0 in the data set with U2OS (setting [4]); 1 in the data set with U2OS (setting [8]); 0 with U2OS (setting [5]). In addition, the “Growth Rate” value in the data set on U2OS (setting [6]) was found to be 1; in the data set with U2OS (setting [7]), 0.
As for `Cc1noc([C@H]2C[C@@H](c3ccc(C(F)(F)F)cc3)CN(C(=O)N3CCS(=O)(=O)C3)C2)n1` [BAY-448], the “Growth Rate” value with Fibroblast (setting [10]) is 0; in the data set with Fibroblast (setting [2]), 1; with Fibroblast (setting [3]) it was 0; in the data set with Fibroblast (setting [4]) it was 1; in the data set on Fibroblast (setting [5]), 0; with Fibroblast (setting [7]) it was 0. The “Growth Rate” value came to 1 with Fibroblast (setting [9]); 1 in the data set on HEK-293T (setting [10]); 0 in the data set with HEK-293T (setting [1]); 0 in the data set with HEK-293T (setting [2]); 1 in the data set on HEK-293T (setting [3]); 0 in the data set with HEK-293T (setting [4]). In addition, the “Growth Rate” value in the data set with HEK-293T (setting [8]) stood at 1; in the data set on HEK-293T (setting [5]) it was 0; in the data set on HEK-293T (setting [7]) it was 0; in the data set on U2OS (setting [10]) it was 0; in the data set with U2OS (setting [3]), 1; in the data set with U2OS (setting [4]), 1. For the same compound, the “Growth Rate” value amounted to 0 with U2OS (setting [5]), 1 in the data set on U2OS (setting [6]), 0 in the data set with U2OS (setting [7]) and 1 in the data set on U2OS (setting [9]).
`COC(=O)C(Cc1ccc(OCCn2c(=O)sc3cc(C(=O)c4ccccc4)ccc32)cc1)C(=O)OC`: the “Growth Rate” value in the data set with Fibroblast (setting [10]) turned out to be 0; in the data set with Fibroblast (setting [3]), 0; in the data set on Fibroblast (setting [4]), 1; in the data set on Fibroblast (setting [8]), 0; in the data set with Fibroblast (setting [5]) it was 1; in the data set with Fibroblast (setting [6]), 0. Further, the “Growth Rate” value in the data set on Fibroblast (setting [7]) is 1; with HEK-293T (setting [10]), 1; with HEK-293T (setting [1]) it was 0; in the data set with HEK-293T (setting [2]), 0; in the data set on HEK-293T (setting [4]), 0; in the data set on HEK-293T (setting [5]), 0. Also, the “Growth Rate” value is 0 with HEK-293T (setting [7]); 0 in the data set on U2OS (setting [10]); 1 in the data set on U2OS (setting [3]); 1 in the data set on U2OS (setting [4]); 1 in the data set with U2OS (setting [5]); 1 with U2OS (setting [7]).
Turning to `COc1ccc(S(=O)(=O)N2c3ccc(Cl)cc3[C@](O)(c3ccccc3Cl)[C@@H]2C(=O)N2CCC[C@H]2C(N)=O)cc1OC` [RELCOVAPTAN], the “Growth Rate” value came to 0 in the data set on Fibroblast (setting [10]); 1 in the data set with Fibroblast (setting [1]); 0 in the data set on Fibroblast (setting [2]); 0 with Fibroblast (setting [4]); 0 with Fibroblast (setting [5]); 0 in the data set with Fibroblast (setting [7]). The “Growth Rate” value in the data set with HEK-293T (setting [10]) turned out to be 1; with HEK-293T (setting [1]), 0; in the data set with HEK-293T (setting [2]), 0; in the data set with HEK-293T (setting [4]), 0; in the data set with HEK-293T (setting [5]), 0; in the data set on HEK-293T (setting [7]), 0. Moreover, the “Growth Rate” value came to 1 in the data set on U2OS (setting [2]); 0 in the data set on U2OS (setting [3]); 0 with U2OS (setting [4]); 0 with U2OS (setting [5]); 0 with U2OS (setting [7]); 1 with U2OS (setting [9]).
As for `O=C(O)Cn1c(C(=O)Nc2nc(-c3ccccc3Cl)cs2)cc2ccccc21`, the “Growth Rate” value amounted to 0 in the data set with Fibroblast (setting [10]); 1 in the data set on Fibroblast (setting [1]); 1 in the data set on Fibroblast (setting [2]); 0 in the data set with Fibroblast (setting [3]); 0 in the data set on Fibroblast (setting [4]); 1 in the data set on Fibroblast (setting [5]). Moreover, the “Growth Rate” value was 0 in the data set with Fibroblast (setting [6]); 0 in the data set on Fibroblast (setting [7]); 0 in the data set with HEK-293T (setting [10]); 1 in the data set on HEK-293T (setting [2]); 0 in the data set on HEK-293T (setting [3]); 1 in the data set with HEK-293T (setting [4]). The “Growth Rate” value with HEK-293T (setting [8]) was determined as 0; in the data set on HEK-293T (setting [5]), 1; in the data set with HEK-293T (setting [6]), 0; in the data set on HEK-293T (setting [7]), 1; in the data set with HEK-293T (setting [9]), 0; in the data set on U2OS (setting [1]) it was 0. For the same compound, the “Growth Rate” value in the data set with U2OS (setting [3]) is recorded as 0; in the data set with U2OS (setting [4]), 1; in the data set with U2OS (setting [5]), 0; in the data set with U2OS (setting [7]) it was 1.
On to `O=C1CCc2cc(Nc3cc(OC4CCOCC4)c([N+](=O)[O-])cc3Cl)ccc2N1`, for which the “Growth Rate” value with Fibroblast (setting [1]) stood at 0; in the data set with Fibroblast (setting [2]) it was 0; with Fibroblast (setting [4]) it was 0; in the data set with Fibroblast (setting [8]), 1; with Fibroblast (setting [5]), 0; with Fibroblast (setting [7]), 0. Further, the “Growth Rate” value in the data set on HEK-293T (setting [10]) is given as 0; in the data set on HEK-293T (setting [1]), 1; with HEK-293T (setting [3]), 1; in the data set on HEK-293T (setting [8]), 1; with HEK-293T (setting [9]) it was 1; in the data set on U2OS (setting [10]) it was 0. In addition, the “Growth Rate” value in the data set on U2OS (setting [2]) is 0; in the data set with U2OS (setting [3]), 1; in the data set with U2OS (setting [4]) it was 0; in the data set on U2OS (setting [8]), 1; with U2OS (setting [5]) it was 0; with U2OS (setting [7]), 0. Further, the “Growth Rate” value in the data set with U2OS (setting [9]) worked out at 1.
For `CCOc1cn(-c2ccc(F)cc2C)nc1C(=O)Nc1ccc(Oc2ccnc3cc(OC)c(OC)cc23)c(F)c1`, the “Growth Rate” value in the data set on Fibroblast (setting [10]) is 1; in the data set with Fibroblast (setting [2]) it was 0; with Fibroblast (setting [3]), 1; with Fibroblast (setting [4]), 0; in the data set with Fibroblast (setting [8]) it was 1; in the data set on Fibroblast (setting [5]) it was 0. For the same compound, the “Growth Rate” value in the data set on Fibroblast (setting [6]) is listed as 1; in the data set on Fibroblast (setting [7]), 0; with Fibroblast (setting [9]), 1; with HEK-293T (setting [10]) it was 0; in the data set on HEK-293T (setting [2]), 1; with HEK-293T (setting [3]) it was 0. Moreover, the “Growth Rate” value in the data set with HEK-293T (setting [8]) was 0; in the data set on HEK-293T (setting [6]), 1; in the data set on HEK-293T (setting [7]), 1; in the data set on HEK-293T (setting [9]), 0; with U2OS (setting [4]), 1; in the data set on U2OS (setting [5]), 1. Also, in the data set with U2OS (setting [7]), the “Growth Rate” value came to 1.
